In ChEMBL document CHEMBL2034915, “Ring Structure and Aromatic Substituent Effects on the pK a of the Benzoxaborole Pharmacophore” (ACS Med Chem Lett, 2012):
The source made the active and inactive calls. The calls are words filed in the database; no cut-off is given here.

Key:
[1] = Binding affinity to adenosine monophosphate in phosphate buffer by ARS competition assay at pH 7.4
[2] = Dissociation constant, pKa of the compound in aqueous solution by spectrophotometry; type: physicochemical
[3] = Dissociation constant, pKa of the compound in aqueous solution by [11]B-NMR analysis; type: physicochemical

Row | Compound | Activity [1] | pKa [2] | pKa [3]
1 | OB1OCc2ccccc21 [BENZOXABOROLE] | Active | 7.34 | 7.2
2 | CC1(C)OB(O)c2ccccc21 | – | 8.32 | –
3 | OB1OCc2cc(C(F)(F)F)ccc21 | Active | – | –
4 | OB1OCCc2ccccc21 [BENZOXABORIN] | – | 8.4 | 8.4
